According to patent US20250049948A1, “NOVEL IONIZABLE LIPIDS AND LIPID NANOPARTICLES AND METHODS OF USING THE SAME” (Sail Biomedicines, Inc., priority 2021, published 2025):

Key:
[1] = mRNA encapsulation efficiency, Quant-iT RiboGreen RNA Assay; assay type: physicochemical
Method: (§1) For each LNP composition, the lipid mix and mRNA solution were mixed at a 1:3 ratio by volume, respectively, on a NanoAssemblr Ignite (Precision Nanosystems) at a total flow rate of 9 mL/min. The resulting compositions were then loaded into Slide-A-Lyzer G2 dialysis cassettes (10 k MWCO) and dialyzed in 200 times sample volume of 1×PBS for 2 hours at room temperature with gentle stirring. The PBS was refreshed, and the compositions were further dialyzed for at least 14 hours at 4° C. with gentle stirring. The dialyzed compositions were then collected and concentrated by centrifugation at 3000×g using Amicon Ultra centrifugation filters (100 k MWCO). The concentrated particles were characterized for size, polydispersity, and particle concentration using Zetasizer Ultra (Malvern Panalytical) and for mRNA encapsulation efficiency using Quant-iT RiboGreen RNA Assay Kit (ThermoFisher Scientific).

[2] = LNP size and polydispersity, Zetasizer Ultra; assay type: physicochemical
Method: as §1

[3] = Apparent LNP pKa, TNS assay; assay type: physicochemical; conditions: LNP with FLUC/EPO 1:1 mRNA
Method: For pKa measurement, a […] assay was conducted according to those described in Sabnis et al., Molecular Therapy, 26(6):1509-19), which is incorporated herein by reference in its entirety. Briefly, 20 buffers (10 mM sodium phosphate, 10 mM sodium borate, 10 mM sodium citrate, and 150 mM sodium chloride, in distilled Water) of unique pH values ranging from 3.0-12.0 were prepared using 1M sodium hydroxide and 1M hydrochloric acid. 3.25 μL of a LNP composition (0.04 mg/mL mRNA, in PBS) was incubated with 2 μL of TNS reagent (0.3 mM, in DMSO) and 90 μL of buffer for each pH value (described above) in a 96-well black-walled plate. Each pH condition was performed in triplicate wells. The TNS fluorescence was measured using a Biotek Cytation Plate reader at excitation/emission wavelengths of 321/445 nm. The fluorescence values were then plotted and fit using a 4-parameter sigmoid curve. From the fit, the pH value yielding the half-maximal fluorescence was calculated and reported as the apparent LNP pKa value.

[4] = test system: Balb/c mice; assay: EPO levels in plasma, EPO MSD kit (Example 6); assay type: in vivo; conditions: mRNA dose 5 μg FLUC + 5 μg EPO, intravenous
[5] = test system: Balb/c mice; assay: In-vivo bioluminescent imaging of LNP compositions (Example 6); conditions: for Bioluminescence (IV) Liver / Bioluminescence (IV) Lung / Bioluminescence (IV) Spleen / Bioluminescence (IV) Whole Body: 4-6 hours post-dose; for Spleen: Liver Ratio: intravenous
[6] = mRNA dose 5 μg FLUC (CRE/FLUC 1:1 LNP)

Structure (SMILES)	% EE ([1]; LNP with FLUC/EPO 1:1 mRNA)	PDI ([2]; LNP with FLUC/EPO 1:1 mRNA)	Size (nm) ([2]; LNP with FLUC/EPO 1:1 mRNA)	pKa (TNS) [3]	hEPO [4]	Bioluminescence (IV) Liver ([5]; mRNA dose 5 μg FLUC + 5 μg EPO)	Bioluminescence (IV) Lung ([5]; mRNA dose 5 μg FLUC + 5 μg EPO)	Bioluminescence (IV) Spleen ([5]; mRNA dose 5 μg FLUC + 5 μg EPO)	Bioluminescence (IV) Whole Body ([5]; mRNA dose 5 μg FLUC + 5 μg EPO)	Spleen: Liver Ratio ([5]; mRNA dose 5 μg FLUC + 5 μg EPO)	other results
CCCCCCC(CCCCCC)CCCOC(=O)CCCCCCCN(CCCCCCCC(=O)OCCCC(CCCCCC)CCCCCC)C(=O)CCCN(C)C [Compound 2133, bis(4-hexyldecyl) 8,8′-((4-(dimethylamino)butanoyl)azanediyl) dioctanoate]	98.7%	0.08	87.7 nm	7.96	2.5E + 02	4.4E + 04	5.8E + 04	3.9E + 04	3.8E + 04	1.574	
CCCCCC(CCCCC)CCCOC(=O)CCCCCCCN(CCCCCCCC(=O)OCCCC(CCCCC)CCCCC)C(=O)CCN1CCCC1 [Compound 2141, bis(4-pentylnonyl) 8,8′-((3-(pyrrolidin-1-yl)propanoyl)azanediyl)dioctanoate]	95.9%	0.06	73.83 nm	7.57	2.1E + 03	3.1E + 04	6.8E + 04	1.3E + 05	1.9E + 05	6.131	% EE ([1]; LNP with CRE/FLUC 1:1 mRNA): 95.6%; % EE ([1]; LNP with EGFP mRNA): 95.4%; PDI ([2]; LNP with CRE/FLUC 1:1 mRNA): 0.11; Size (nm) ([2]; LNP with CRE/FLUC 1:1 mRNA): 79.4 nm; PDI ([2]; LNP with EGFP mRNA): 0.21; Size (nm) ([2]; LNP with EGFP mRNA): 109.3 nm; Bioluminescence (IV) Liver [5, 6]: 5.6E + 05; Bioluminescence (IV) Lung [5, 6]: 7.1E + 03; Bioluminescence (IV) Spleen [5, 6]: 2.3E + 05; Bioluminescence (IV) Whole Body [5, 6]: 5.5E + 06; Spleen: Liver Ratio [5, 6]: 0.527
CCCCCCCCC(CCCCCC)C(=O)OCCCCCCN(CCCCCCOC(=O)C(CCCCCC)CCCCCCCC)C(=O)CCN1CCCC1 (centres unmarked) [Compound 2215, ((3-(pyrrolidin-1-yl)propanoyl)azanediyl)bis (hexane-6,1-diyl) bis(2-hexyldecanoate)]	96.3%	0.1	80.18 nm	7.12		2.2E + 06	6.5E + 04	6.6E + 05	3.2E + 07	0.449	
CCCCCCCCC(CCCCCC)C(=O)OCCCCCCN(CCCCCCOC(=O)C(CCCCCC)CCCCCCCC)CCOCCOCCN(C)C (centres unmarked) [Compound 2216, 11-(6-((2-hexyldecanoyl)oxy)hexyl)-2-methyl-5,8-dioxa-2,11-diazaheptadecan-17-yl 2-hexyldecanoate]	96.8%	0.11	88.81 nm	7		3.2E + 05	9.0E + 03	3.8E + 05	1.5E + 06	1.539	
CCCCCCCCC(CCCCCC)C(=O)OCCCCCCN(CCCCCCOC(=O)C(CCCCCC)CCCCCCCC)CCC(O)CN(C)C (centres unmarked) [Compound 2225, ((4-(dimethylamino)-3-hydroxybutyl)azanediyl) bis(hexane-6,1-diyl) bis(2-hexyldecanoate)]	97.9%	0.07	81.88 nm	7.25		1.8E + 05	1.0E + 04	2.2E + 05	3.5E + 05	1.261	
CCCCCC(CCCCC)CCCOC(=O)CCCCCCCN(CCCCCCCC(=O)OCCCC(CCCCC)CCCCC)C(=O)CN1CCCC1 [Compound 2233, bis(4-pentylnonyl) 8,8′-((2-(pyrrolidin-1-yl)acetyl)azanediyl) dioctanoate]	91.2%	0.04	85.5 nm	6.83	2.8E + 06	6.1E + 07	4.1E + 04	4.7E + 06	5.4E + 08	0.077	
CCCCCC(CCCCC)CCCOC(=O)CCCCCCCN(CCCCCCCC(=O)OCCCC(CCCCC)CCCCC)C(=O)CCN1CCC(O)C1 (centres unmarked) [Compound 2235, bis(4-pentylnonyl) 8,8′-((3-(3-hydroxypyrrolidin-1-yl)propanoyl)azanediyl)dioctanoate]	97.5%	0.067	84.84 nm	7.76	2.2E + 02	2.0E + 03	7.6E + 03	2.9E + 04	9.8E + 03	14.407	
CCCCCCCCCCCOC(=O)CCCCCN(CCCCCCCC(=O)OC(CCCCCCCC)CCCCCCCC)C(C)CO (centres unmarked) [Compound 2249, heptadecan-9-yl 8-((1-hydroxypropan-2-yl)(6-oxo-6-(undecyloxy)hexyl)amino)octanoate]	93.3%	0.08	86.05 nm	5.84	7.6E + 05	1.2E + 07	7.9E + 03	3.2E + 06	7.2E + 07	0.258	
CCCCCCCCCCCOC(=O)CCCCCN(CCCCCCCC(=O)OC(CCCCCCCC)CCCCCCCC)C(C)(C)CO [Compound 2250, heptadecan-9-yl 8-((1-hydroxy-2-methylpropan-2-yl)(6-oxo-6-(undecyloxy)hexyl)amino)octanoate]	92.2%	0.068	73.75 nm	6.31	9.5E + 05	2.7E + 07	7.9E + 03	2.7E + 06	1.5E + 08	0.099	
